In one test the target is T1, CFTR G551D mutant (Homo sapiens, UniProt P13569, G551D).
T1 construct: expressed in transfected cells; host or cells: HEK293 cells, reverse transfection with plasmids
The test can be described thus: YFP-halide influx assay for the CFTR-G551D mutation (HEK293 cells). The following applies: forskolin 10.67 μM. The class given is cell-based. In outline:
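HEK293 cells reverse-transfected with CFTR G551D and halide-sensitive YFP (H148Q/I152L/F47L), expressed 24 h at 37 °C. YFP fluorescence quenching recorded for 7 s after I⁻ injection. Response = 1−F/F0; EC50 derived from 1−F/F0 vs compound concentration.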

In another test the target is T2, CFTR ΔF508 mutant (Homo sapiens, UniProt P13569, DEL508-508).
T2 construct: expressed in transfected cells; host or cells: CFBE41o- cells, adenoviral transduction
Description: YFP-halide influx assay for the CFTR-ΔF508 mutation (CFBE41o- cells). The test is classed as cell-based. The following applies: forskolin 10.67 μM; for EC50: from (1−F/F0) vs concentration plot. In outline: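 CFBE41o- cells transduced with adenovirus expressing CFTR ΔF508 and halide-sensitive YFP H148Q/I152L/F47L, then held 24 h at 27° C or with a CFTR modulator 24 h at 37° C. Iodide-induced quench recorded 2 min; EC50 from (1−F/F0) at 36 s versus concentration.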

Each structure is given as a SMILES string.

T1 sequence (P13569 whole entry G551D): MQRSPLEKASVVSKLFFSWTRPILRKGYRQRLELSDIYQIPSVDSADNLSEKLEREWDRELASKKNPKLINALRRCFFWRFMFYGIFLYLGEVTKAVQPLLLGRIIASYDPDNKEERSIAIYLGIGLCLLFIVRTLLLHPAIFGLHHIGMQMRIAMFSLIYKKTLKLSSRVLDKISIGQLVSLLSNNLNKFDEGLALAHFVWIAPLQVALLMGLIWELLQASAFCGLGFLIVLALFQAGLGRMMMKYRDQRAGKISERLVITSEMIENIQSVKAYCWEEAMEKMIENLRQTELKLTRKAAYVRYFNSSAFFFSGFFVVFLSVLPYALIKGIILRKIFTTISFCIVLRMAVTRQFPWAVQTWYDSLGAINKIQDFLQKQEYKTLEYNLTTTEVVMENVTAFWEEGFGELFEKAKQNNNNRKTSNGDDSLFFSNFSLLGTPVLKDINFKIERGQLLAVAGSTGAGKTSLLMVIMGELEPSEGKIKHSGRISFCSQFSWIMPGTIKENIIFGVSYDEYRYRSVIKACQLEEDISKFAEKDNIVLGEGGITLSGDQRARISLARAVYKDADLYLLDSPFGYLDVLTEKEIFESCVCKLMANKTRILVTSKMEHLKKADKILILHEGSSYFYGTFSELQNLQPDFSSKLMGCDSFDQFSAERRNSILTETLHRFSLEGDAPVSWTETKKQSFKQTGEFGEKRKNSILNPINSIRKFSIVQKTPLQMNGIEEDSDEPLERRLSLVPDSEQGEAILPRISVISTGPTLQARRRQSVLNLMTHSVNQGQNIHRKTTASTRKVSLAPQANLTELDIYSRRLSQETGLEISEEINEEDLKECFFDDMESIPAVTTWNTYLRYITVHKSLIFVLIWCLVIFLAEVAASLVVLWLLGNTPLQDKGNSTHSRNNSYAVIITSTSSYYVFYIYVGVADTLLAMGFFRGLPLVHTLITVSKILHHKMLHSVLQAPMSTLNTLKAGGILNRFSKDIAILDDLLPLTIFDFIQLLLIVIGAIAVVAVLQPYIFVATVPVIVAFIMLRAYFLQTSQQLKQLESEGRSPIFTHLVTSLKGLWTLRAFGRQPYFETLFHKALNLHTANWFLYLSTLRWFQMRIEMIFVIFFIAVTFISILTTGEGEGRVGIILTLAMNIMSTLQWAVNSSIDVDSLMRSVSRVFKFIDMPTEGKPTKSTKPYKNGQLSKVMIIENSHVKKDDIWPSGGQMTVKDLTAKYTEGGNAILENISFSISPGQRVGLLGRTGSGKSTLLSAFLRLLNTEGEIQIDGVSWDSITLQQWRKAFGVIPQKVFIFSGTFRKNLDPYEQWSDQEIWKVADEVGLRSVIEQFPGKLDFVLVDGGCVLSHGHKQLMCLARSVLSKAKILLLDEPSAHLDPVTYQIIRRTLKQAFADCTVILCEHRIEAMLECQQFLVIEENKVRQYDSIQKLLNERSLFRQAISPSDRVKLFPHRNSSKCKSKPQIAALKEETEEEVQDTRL
T2 sequence (P13569 with tags, fused parts or gaps DEL508-508): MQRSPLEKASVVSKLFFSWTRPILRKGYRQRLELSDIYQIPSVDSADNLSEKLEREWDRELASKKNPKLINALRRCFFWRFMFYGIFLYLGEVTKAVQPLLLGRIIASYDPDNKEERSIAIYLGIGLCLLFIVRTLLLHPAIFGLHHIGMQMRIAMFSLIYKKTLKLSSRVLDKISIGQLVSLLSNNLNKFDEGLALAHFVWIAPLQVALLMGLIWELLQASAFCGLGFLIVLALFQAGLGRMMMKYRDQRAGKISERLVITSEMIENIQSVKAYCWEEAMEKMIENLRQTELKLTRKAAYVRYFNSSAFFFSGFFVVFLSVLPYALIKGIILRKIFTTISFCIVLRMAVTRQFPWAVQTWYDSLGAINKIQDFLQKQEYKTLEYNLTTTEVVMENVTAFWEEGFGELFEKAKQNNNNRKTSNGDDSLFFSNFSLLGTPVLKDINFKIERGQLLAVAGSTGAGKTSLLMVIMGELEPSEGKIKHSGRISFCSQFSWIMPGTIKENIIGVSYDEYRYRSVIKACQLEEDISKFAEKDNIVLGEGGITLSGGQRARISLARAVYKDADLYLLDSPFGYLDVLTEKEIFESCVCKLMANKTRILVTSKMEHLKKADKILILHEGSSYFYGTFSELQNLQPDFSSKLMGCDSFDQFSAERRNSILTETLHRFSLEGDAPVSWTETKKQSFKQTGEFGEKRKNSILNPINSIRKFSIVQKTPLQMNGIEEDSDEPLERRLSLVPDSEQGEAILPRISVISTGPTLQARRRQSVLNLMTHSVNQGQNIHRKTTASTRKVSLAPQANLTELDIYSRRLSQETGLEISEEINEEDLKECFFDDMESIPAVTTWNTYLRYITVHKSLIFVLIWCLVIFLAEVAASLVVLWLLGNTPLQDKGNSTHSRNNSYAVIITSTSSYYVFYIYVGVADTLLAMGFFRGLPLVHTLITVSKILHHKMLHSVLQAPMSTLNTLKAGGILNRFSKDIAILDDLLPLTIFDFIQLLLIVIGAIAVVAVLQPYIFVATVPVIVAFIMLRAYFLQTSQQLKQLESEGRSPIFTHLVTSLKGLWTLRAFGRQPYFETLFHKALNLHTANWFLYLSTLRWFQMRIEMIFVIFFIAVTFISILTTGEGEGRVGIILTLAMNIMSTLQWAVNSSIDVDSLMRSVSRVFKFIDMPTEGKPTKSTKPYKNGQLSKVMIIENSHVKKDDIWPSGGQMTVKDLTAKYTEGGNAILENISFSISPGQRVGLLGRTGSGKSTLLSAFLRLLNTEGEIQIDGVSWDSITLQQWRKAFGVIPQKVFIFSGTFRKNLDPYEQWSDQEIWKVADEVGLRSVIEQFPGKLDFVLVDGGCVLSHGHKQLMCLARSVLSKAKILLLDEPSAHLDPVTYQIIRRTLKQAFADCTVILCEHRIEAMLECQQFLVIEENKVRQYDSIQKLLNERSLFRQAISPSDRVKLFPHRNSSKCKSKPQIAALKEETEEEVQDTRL

One may read the EC50 as the concentration that produces a half-maximal response. Low readings indicate greater potency, high ones weaker potency. As for `CC(C)COCC(O)CNC(=O)c1ncc(S(=O)(=O)c2ccc(OC(F)(F)F)cc2F)cc1N` (stereo not drawn) [Compound 171, 3-amino-5-{[2-fluoro-4-(trifluoromethoxy)phenyl]sulfonyl}-N-[2-hydroxy-3-(2-methylpropoxy)propyl]pyridine-2-carboxamide], on CFTR G551D mutant, the “% Activation” value was 86.4% and the midpoint of the response, the EC50, lay at 991 nM. At CFTR ΔF508 mutant, the “% Activation” value amounted to 103.7% and the EC50 is 8.7 nM.

As for `Nc1cc(S(=O)(=O)c2ccc(C(F)(F)F)cc2)cnc1C(=O)NC[C@@H]1CCOC1` [Compound 102, 3-amino-N-[(3S)-tetrahydrofuran-3-ylmethyl]-5-{[4-(trifluoromethyl)phenyl]sulfonyl}pyridine-2-carboxamide], the entries for the “% Activation” value on CFTR G551D mutant and at CFTR ΔF508 mutant were 73.6% and 119.0%, respectively. Besides, the EC50 at CFTR G551D mutant was found to be 1360 nM; at CFTR ΔF508 mutant it was 28.2 nM.

In the case of `Nc1cc(S(=O)(=O)c2ccc(F)cc2)c(Br)nc1C(=O)NC[C@@H](O)C(F)(F)F` [Compound 250, 3-amino-6-bromo-5-[(4-fluorophenyl)sulfonyl]-N-[(2R)-3,3,3-trifluoro-2-hydroxypropyl]pyridine-2-carboxamide], on CFTR G551D mutant, the “% Activation” value was 90.4% and the EC50 was 453 nM. In addition, at CFTR ΔF508 mutant, the “% Activation” value came out at 111.5% and a half-maximal response (EC50) required 1 nM.

As to `CC(C)CNC(=O)c1ncc(S(=O)(=O)c2ccc(C(F)(F)F)cc2)cc1N` [Compound 189, 3-amino-N-(2-methylpropyl)-5-{[4-(trifluoromethyl)phenyl]sulfonyl}pyridine-2-carboxamide], the “% Activation” value was 30.7% at CFTR G551D mutant and 99.9% at CFTR ΔF508 mutant. The values for the EC50 at CFTR G551D mutant and at CFTR ΔF508 mutant were greater than 10000 nM and 112 nM, respectively.

Take `C[C@H](O)CNC(=O)c1nc(N(C)C)c(S(=O)(=O)c2ccc(OC(F)(F)F)cc2)cc1N` [Compound 283, 3-amino-6-(dimethylamino)-N-[(2S)-2-hydroxypropyl]-5-{[4-(trifluoromethoxy)phenyl]sulfonyl}pyridine-2-carboxamide]: the “% Activation” value on CFTR G551D mutant came to 96.5%; on CFTR ΔF508 mutant, 93.3%. Also, the EC50 at CFTR G551D mutant worked out at 2620 nM; at CFTR ΔF508 mutant, 5.1 nM.

Take `CCS(=O)(=O)c1cc(N)c(C(=O)NC[C@H](C)O)nc1C1CC1` [Compound 275, 3-amino-6-cyclopropyl-5-(ethylsulfonyl)-N-[(2S)-2-hydroxypropyl]pyridine-2-carboxamide]: the “% Activation” value on CFTR G551D mutant was found to be 4.2%; on CFTR ΔF508 mutant it was 68.5%. Also, the EC50 is greater than 10000 nM on CFTR G551D mutant and greater than 667 nM at CFTR ΔF508 mutant.

On to `Nc1cc(S(=O)(=O)c2ccc(C(F)(F)F)cc2F)cnc1C(=O)NCC(O)COCC(F)(F)F` (stereo not drawn) [Compound 213, 3-amino-5-{[2-fluoro-4-(trifluoromethyl)phenyl]sulfonyl}-N-[2-hydroxy-3-(2,2,2-trifluoroethoxy)propyl]pyridine-2-carboxamide], for which, on CFTR G551D mutant, the “% Activation” value is 71.0% and a half-maximal effect (EC50) was put at 414 nM. Besides, at CFTR ΔF508 mutant, the “% Activation” value was determined as 115.3% and the EC50 was found to be 6 nM.

Take `Nc1cc(S(=O)(=O)N2CCCC(F)C2)cnc1C(=O)NCC(O)C(F)(F)F` (stereo not drawn) [Compound 194, 3-amino-5-[(3-fluoropiperidin-1-yl)sulfonyl]-N-(3,3,3-trifluoro-2-hydroxypropyl)pyridine-2-carboxamide]: the “% Activation” value at CFTR G551D mutant was 62.3%; on CFTR ΔF508 mutant, 95.7%. Further, the EC50 was 1780 nM at CFTR G551D mutant and 32.7 nM at CFTR ΔF508 mutant.

In the case of `CC(C)OCC(O)CNC(=O)c1ncc(S(=O)(=O)c2ccc(C(F)(F)F)cc2F)cc1N` (stereo not drawn) [Compound 133, 3-amino-5-{[2-fluoro-4-(trifluoromethyl)phenyl]sulfonyl}-N-[2-hydroxy-3-(propan-2-yloxy)propyl]pyridine-2-carboxamide], the “% Activation” value on CFTR G551D mutant amounted to 84.2%; at CFTR ΔF508 mutant, 105.9%. The EC50 on CFTR G551D mutant amounted to 253 nM; on CFTR ΔF508 mutant, 3.7 nM.

Values taken from patent US10047051B2, “Substituted pyridines and method of use” (AbbVie S.á{acute over (.)}r.l., priority 2015, dated 2018).
